From patent US12336991B2, “Factor XIIA inhibitors” (UNIVERSITY OF LEEDS, priority 2018, dated 2025)

Tests used:
Type in all cases: biochemical
FXa = FXa (Homo sapiens, UniProt P00742); test: Determination of selectivity: FXa inhibition, chromogenic substrate S2765 assay; conditions: fold selectivity for FXIIa over FXa
In short: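 Human FXa (5 nM) preincubated with compound (top 500 μM, 5% DMSO) 10 min at 37 °C in 50 mM Tris, 137 mM NaCl pH 7.4, then S2765 ([…]) added; A405 kinetics over 3 h at 37 °C. IC50 from initial rates, converted to Ki via Cheng-Prusoff.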

thrombin = molecular target: T1, thrombin (Homo sapiens, UniProt P00734); test: Determination of selectivity: thrombin inhibition, chromogenic substrate GPR assay; conditions: fold selectivity for FXIIa over thrombin
T1 construct: FXa (5 nM) and thrombin (5 nM)
In short: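 Thrombin (5 nM) preincubated with compound 10 min at 37 °C in 50 mM Tris, 137 mM NaCl, pH 7.4, 5% DMSO, then GPR substrate ([…]) added. Absorbance at 405 nm read kinetically for 3 h; IC50 from initial rates, converted to Ki via Ki=IC50/(1+[S]/Km).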

FXIIa = molecular target: T2, FXIIa (Homo sapiens, UniProt P00748); test: Determination of Factor XIIa inhibition, chromogenic substrate S-2302 assay; conditions: human FXIIa alpha
T2 sequence (P00748 373-615 limits assumed): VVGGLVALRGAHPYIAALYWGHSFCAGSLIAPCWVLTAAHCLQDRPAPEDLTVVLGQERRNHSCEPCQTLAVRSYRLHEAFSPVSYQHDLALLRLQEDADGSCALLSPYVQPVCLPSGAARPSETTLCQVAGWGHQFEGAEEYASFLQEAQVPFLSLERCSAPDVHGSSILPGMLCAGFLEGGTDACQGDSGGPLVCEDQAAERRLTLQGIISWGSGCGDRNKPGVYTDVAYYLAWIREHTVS
T2 sequence (P00748 20-372 partner limits assumed): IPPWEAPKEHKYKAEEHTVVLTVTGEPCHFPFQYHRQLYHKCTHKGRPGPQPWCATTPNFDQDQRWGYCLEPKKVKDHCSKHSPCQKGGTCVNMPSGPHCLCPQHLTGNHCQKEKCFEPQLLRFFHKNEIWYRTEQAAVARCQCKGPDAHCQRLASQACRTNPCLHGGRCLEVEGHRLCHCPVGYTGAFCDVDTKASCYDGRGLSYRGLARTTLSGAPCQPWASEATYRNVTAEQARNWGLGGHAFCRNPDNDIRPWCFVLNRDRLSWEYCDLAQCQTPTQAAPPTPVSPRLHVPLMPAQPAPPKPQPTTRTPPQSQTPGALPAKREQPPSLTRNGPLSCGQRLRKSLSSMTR
In short: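 FXIIa (10 nM) preincubated with compound 10 min at 37° C. in 50 mM Tris, 137 mM NaCl pH 7.4, 5% DMSO, top concentration 500 μM, then S-2302 added ([…]). Absorbance at 405 nm read kinetically for 3 h; IC50 from initial rates, converted to Ki by Cheng-Prusoff.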

Chain of FXa (P00742 235-488 limits assumed): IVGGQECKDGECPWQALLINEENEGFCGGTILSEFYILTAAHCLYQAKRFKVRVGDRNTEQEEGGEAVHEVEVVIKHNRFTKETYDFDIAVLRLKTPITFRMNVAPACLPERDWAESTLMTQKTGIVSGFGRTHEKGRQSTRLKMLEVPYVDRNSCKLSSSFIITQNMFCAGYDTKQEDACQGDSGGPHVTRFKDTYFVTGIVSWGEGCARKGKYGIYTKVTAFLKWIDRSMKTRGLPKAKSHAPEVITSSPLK
Chain of FXa (P00742 41-179 partner limits assumed): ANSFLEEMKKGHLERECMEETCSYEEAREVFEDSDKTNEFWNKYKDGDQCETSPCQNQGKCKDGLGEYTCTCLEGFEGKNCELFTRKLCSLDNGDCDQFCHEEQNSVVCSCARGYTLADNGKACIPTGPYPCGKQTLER

Compound | FXa (human)/FXIIa alpha (human) (FXa) | Thrombin (human)/FXIIa alpha (human) (thrombin) | Ki (FXIIa)
Cn1nnc2cc(CNC(=O)[C@@H]3C[C@@H](Cc4ccccc4Cl)CN3C(=O)[C@H]3C[C@@H](c4ccccc4)CN3)ccc21 [Example M05333] | ∘ | ++ (fold selectivity value of 10 to 100) | > 2000 nM
Cn1nnc2cc(CNC(=O)[C@@H]3C[C@@H](Cc4ccc(C(F)(F)F)cc4)CN3C(=O)[C@H]3C[C@@H](c4ccccc4)CN3)ccc21 [Example M05334] | ∘∘ | ++ (fold selectivity value of 10 to 100) | 200 to 2000 nM
Cn1nnc2cc(CNC(=O)[C@@H]3C[C@@H](Cc4cccc(Cl)c4)CN3C(=O)[C@H]3C[C@@H](c4ccccc4)CN3)ccc21 [Example M05335] | ∘∘ | ++ (fold selectivity value of 10 to 100) | > 2000 nM
Cn1nnc2cc(CNC(=O)[C@@H]3C[C@@H](Cc4ccc(C(F)(F)F)cc4)CN3C(=O)[C@H](N)CCC(=O)N3CCCC3)ccc21 [Example M05336] | ∘∘∘ | +++ (fold selectivity values greater than 100) | < 200 nM
Cn1nnc2cc(CNC(=O)[C@@H]3C[C@@H](Cc4ccccc4C#N)CN3C(=O)[C@H]3C[C@@H](c4ccccc4)CN3)ccc21 [Example M05337] | ∘∘ | ++ (fold selectivity value of 10 to 100) | > 2000 nM
Cn1nnc2cc(CNC(=O)[C@@H]3C[C@@H](Cc4cccnc4)CN3C(=O)[C@H]3C[C@@H](c4ccccc4)CN3)ccc21 [Example M05338] | ∘∘ | ++ (fold selectivity value of 10 to 100) | > 2000 nM
COc1ccc(C[C@@H]2C[C@@H](C(=O)NCc3ccc4c(c3)nnn4C)N(C(=O)[C@H]3C[C@@H](c4ccccc4)CN3)C2)cc1Cl [Example M05339] | ∘∘∘ | +++ (fold selectivity values greater than 100) | 200 to 2000 nM
COc1ccc(C[C@@H]2C[C@@H](C(=O)NCc3ccc4c(c3)nnn4C)N(C(=O)[C@H]3CC(c4ccc(F)cc4)CN3)C2)cc1 (stereo partly drawn) [Example M05340] | ∘∘ | ++ (fold selectivity value of 10 to 100) | 200 to 2000 nM
Cn1cc(-c2ccc(C[C@@H]3C[C@@H](C(=O)NCc4ccc5c(c4)nnn5C)N(C(=O)[C@H](N)CCC(=O)N4CCCC4)C3)cc2)cn1 [Example M05341] | ∘∘∘ | +++ (fold selectivity values greater than 100) | 200 to 2000 nM
Cn1nnc2cc(CNC(=O)[C@@H]3C[C@@H](Cc4ccc(Br)cc4)CN3C(=O)[C@H]3C[C@@H](c4ccccc4)CN3)ccc21 [Example M05342] | ∘∘∘ | ++ (fold selectivity value of 10 to 100) | 200 to 2000 nM
COc1ccc(C[C@@H]2C[C@@H](C(=O)NCc3ccc4c(c3)nnn4C)N(C(=O)[C@H]3CC(c4ccc(C(F)(F)F)cc4)CN3)C2)cc1 (stereo partly drawn) [Example M05345] | ∘∘ | ++ (fold selectivity value of 10 to 100) | > 2000 nM
COc1ccc(C[C@@H]2C[C@@H](C(=O)NCc3ccc4c(c3)nnn4C)N(C(=O)[C@H]3CC(c4ccc(Cl)cc4)CN3)C2)cc1 (stereo partly drawn) [Example M05346] | ∘∘ | ++ (fold selectivity value of 10 to 100) | > 2000 nM
COc1ccc(CC2C[C@@H](C(=O)NCc3ccc4c(c3)nnn4C)N(C(=O)[C@H]3C[C@@H](c4ccccc4)CN3)C2)cc1OC (stereo partly drawn) [Example M05348] | ∘∘∘ | +++ (fold selectivity values greater than 100) | 200 to 2000 nM
CC(C)Oc1ccc(CC2C[C@@H](C(=O)NCc3ccc4c(c3)nnn4C)N(C(=O)[C@H]3C[C@@H](c4ccccc4)CN3)C2)cc1 (stereo partly drawn) [Example M05349] | ∘∘ | ++ (fold selectivity value of 10 to 100) | 200 to 2000 nM
Cn1nccc1-c1cccc(C[C@@H]2C[C@@H](C(=O)NCc3ccc4c(c3)nnn4C)N(C(=O)[C@H](N)CCC(=O)N3CCCC3)C2)c1 [Example M05350, (2S,4R)-1-((R)-2-Amino-5-oxo-5-pyrrolidin-1-yl-pentanoyl)-4-[3-(2-methyl-2H-pyrazol-3-yl)-benzyl]-pyrrolidine-2-carboxylic acid (1-methyl-1H-benzotriazol-5-ylmethyl)-amide] | ∘∘∘ | +++ (fold selectivity values greater than 100) | 200 to 2000 nM
COc1ccc(C[C@@H]2C[C@@H](C(=O)NCc3ccc4c(c3)nnn4C)N(C(=O)[C@H]3C[C@@H](Oc4ccccc4)CN3)C2)cc1 [Example M05351] | ∘∘ | ++ (fold selectivity value of 10 to 100) | > 2000 nM
COc1ccc(C[C@@H]2C[C@@H](C(=O)NCc3ccc4c(c3)nnn4C)N(C(=O)[C@H]3C[C@@H](c4ccccc4)CN3)C2)cc1F [Example M05352] | ∘∘∘ | +++ (fold selectivity values greater than 100) | 200 to 2000 nM
COc1ccc(C[C@@H]2C[C@@H](C(=O)NCc3ccc4c(c3)nnn4C)N(C(=O)[C@H]3C[C@@H](c4ccncc4)CN3)C2)cc1 [Example M05353] | ∘∘ | ++ (fold selectivity value of 10 to 100) | > 2000 nM
COc1ccc(C[C@@H]2C[C@@H](C(=O)NCc3ccc4c(c3)nnn4C)N(C(=O)[C@H]3C[C@@H](c4cccnc4)CN3)C2)cc1 [Example M05354] | ∘∘∘ | +++ (fold selectivity values greater than 100) | 200 to 2000 nM
Cn1nnc2cc(CNC(=O)[C@@H]3C[C@@H](Cc4cccc(C(F)(F)F)c4)CN3C(=O)[C@H]3C[C@@H](c4ccccc4)CN3)ccc21 [Example M05356] | ∘∘ | ++ (fold selectivity value of 10 to 100) | > 2000 nM
Cn1nnc2cc(CNC(=O)[C@@H]3C[C@@H](Cc4ccccc4C(F)(F)F)CN3C(=O)[C@H]3C[C@@H](c4ccccc4)CN3)ccc21 [Example M05357] | ∘∘ | ++ (fold selectivity value of 10 to 100) | > 2000 nM
Cc1cccc(C[C@@H]2C[C@@H](C(=O)NCc3ccc4c(c3)nnn4C)N(C(=O)[C@H]3C[C@@H](c4ccccc4)CN3)C2)c1 [Example M05359] | ∘∘ | ++ (fold selectivity value of 10 to 100) | 200 to 2000 nM
Cc1ccccc1C[C@@H]1C[C@@H](C(=O)NCc2ccc3c(c2)nnn3C)N(C(=O)[C@H]2C[C@@H](c3ccccc3)CN2)C1 [Example M05360] | ∘∘ | ++ (fold selectivity value of 10 to 100) | 200 to 2000 nM
Cn1nnc2cc(CNC(=O)[C@@H]3C[C@@H](Cc4ccc(F)cc4F)CN3C(=O)[C@H]3C[C@@H](c4ccccc4)CN3)ccc21 [Example M05361] | ∘∘ | ++ (fold selectivity value of 10 to 100) | 200 to 2000 nM
